Assay results reported in US10947188B2, “Small molecule ferroptosis inducers” (THE TRUSTEES OF COLUMBIA UNIVERSITY IN THE CITY OF NEW YORK, priority 2016, dated 2021).
Where a SMILES comes first, the peptide text is derived from it. The star is where a group is joined. Cbz = O=C(OCc1ccccc1)*

Tested on: BJeLR
Assay: Modulatory profiling: Alamar Blue viability, lethal compound cotreated with death modulator (EC50, AUC)
Type: cell-based, human
Design: AUC, modulator BJ.Gd3+ / AUC, modulator BJ.LNAME / AUC, modulator BJ.Lmin / AUC, modulator BJ.3MA / AUC, modulator BJ.ALLN / AUC, modulator BJ.Boc D / AUC, modulator BJ.CHX / AUC, modulator BJ.Co2+ / AUC, modulator BJ.Nec-1 / AUC, modulator BJ.Pepstatin / AUC, modulator BJ.TLCK / AUC, modulator BJ.atoc / AUC, modulator BJ.trolox / AUC, modulator BJ.zVAD: unit not given beside the values
Settings: for AUC, modulator BJ.3MA / AUC, modulator BJ.ALLN / AUC, modulator BJ.Boc D / AUC, modulator BJ.CHX / AUC, modulator BJ.Co2+ / AUC, modulator BJ.DPQ / AUC, modulator BJ.Gd3+ / AUC, modulator BJ.LNAME / AUC, modulator BJ.Lmin/NAD+ / AUC, modulator BJ.Lmin / AUC, modulator BJ.NAD+ / AUC, modulator BJ.NMMA / AUC, modulator BJ.Nec-1 / AUC, modulator BJ.Pepstatin / AUC, modulator BJ.TLCK / AUC, modulator BJ.atoc / AUC, modulator BJ.trolox / AUC, modulator BJ.zVAD: BJeLR cells, modulatory profile value (AUC); for AUC, modulator BJ.3MA: lethal compound cotreated with modulator 3MA; for AUC, modulator BJ.ALLN: lethal compound cotreated with modulator ALLN; for AUC, modulator BJ.Boc D: lethal compound cotreated with modulator Boc D; for AUC, modulator BJ.CHX: lethal compound cotreated with modulator CHX; for AUC, modulator BJ.Co2+: lethal compound cotreated with modulator Co2+; for AUC, modulator BJ.DPQ: lethal compound cotreated with modulator DPQ; for AUC, modulator BJ.Gd3+: lethal compound cotreated with modulator Gd3+; for AUC, modulator BJ.LNAME: lethal compound cotreated with modulator LNAME; for AUC, modulator BJ.Lmin/NAD+: lethal compound cotreated with modulator Lmin/NAD+; for AUC, modulator BJ.Lmin: lethal compound cotreated with modulator Lmin; for AUC, modulator BJ.NAD+: lethal compound cotreated with modulator NAD+; for AUC, modulator BJ.NMMA: lethal compound cotreated with modulator NMMA; for AUC, modulator BJ.Nec-1: lethal compound cotreated with modulator Nec-1; for AUC, modulator BJ.Pepstatin: lethal compound cotreated with modulator Pepstatin; for AUC, modulator BJ.TLCK: lethal compound cotreated with modulator TLCK; for EC50: Homo sapiens, BJeLR, 48 h; for AUC, modulator BJ.atoc: lethal compound cotreated with modulator atoc; for AUC, modulator BJ.trolox: lethal compound cotreated with modulator trolox; for AUC, modulator BJ.zVAD: lethal compound cotreated with modulator zVAD
[1] = cotreated with antioxidant Trolox
[2] = cotreated with antioxidant atoc
[3] = cotreated with iron-chelator Lmim

Compound | AUC, modulator BJ.3MA | AUC, modulator BJ.ALLN | AUC, modulator BJ.Boc D | AUC, modulator BJ.CHX | AUC, modulator BJ.Co2+ | AUC, modulator BJ.DPQ | AUC, modulator BJ.Gd3+ | AUC, modulator BJ.LNAME | AUC, modulator BJ.Lmin/NAD+ | AUC, modulator BJ.Lmin | AUC, modulator BJ.NAD+ | AUC, modulator BJ.NMMA | AUC, modulator BJ.Nec-1 | AUC, modulator BJ.Pepstatin | AUC, modulator BJ.TLCK | EC50 (DMSO) [nM] | EC50 (cotreated with Lmim_NAD) [nM] | AUC, modulator BJ.atoc | AUC, modulator BJ.trolox | AUC, modulator BJ.zVAD | further results
O=C(CCl)N(c1ccccc1)c1c[nH]c2ccccc12 [CIL69] | 0.07713 | −0.0005222 | −0.003228 | −0.03495 | 0.1724 | 0.02521 | 0.02983 | 0.005201 | 0.1449 | 0.1799 | 0.02203 | −0.02133 | 0.1721 | 0.0531 | 0.1963 | 193 | 889 |  |  |  | EC50 [1]: 2050 nM; EC50 [2]: 1780 nM; EC50 [3]: 976 nM
N/C(Cc1ccc(Cl)cc1)=N\OC(=O)c1cccc2ccccc12 [CIL70] | 0.1014 | −0.07036 | 0.002412 | 0.1304 | −0.0004925 | 0.02973 | 0.04884 | −0.006027 | 0.2633 | 0.2062 | 0.03108 | −0.008547 | 0.1293 | 0.07715 | 0.06301 | 1760 | 14800 |  |  |  | EC50 [1]: 7100 nM; EC50 [2]: 18600 nM; EC50 [3]: 13100 nM
O=C(CCl)N(c1ccc(Cl)cc1)c1c[nH]c2ccccc12 [CIL75] | 0.04653 | 0.01301 | 0.03092 | −0.009103 | 0.2049 | −1.616E−05 | 0.0459 | 0.01184 | 0.2292 | 0.146 | −0.01643 | −0.01449 | 0.1883 | 0.07275 | 0.2311 | 59.8 | 314 |  |  |  | EC50 [1]: 1100 nM; EC50 [2]: 1040 nM; EC50 [3]: 341 nM
COC(=O)[C@@H]1Cc2c([nH]c3ccccc23)C(C)(C)N1C(=O)CCl [CIL79] | 0.0798 | 0.02717 | 0.02938 | −0.04651 | 0.1763 | 0.003967 | 0.00956 | 0.01544 | 0.2136 | 0.2049 | −0.00637 | −0.008594 | 0.2258 | 0.04063 | 0.1984 | 157 | 566 |  |  |  | EC50 [1]: 8320 nM; EC50 [2]: 7930 nM; EC50 [3]: 667 nM
CC[C@@]1(O)C(=O)OCc2c1cc1n(c2=O)Cc2cc3ccccc3nc2-1 [Camptothecin] | −0.02027 | 0.03368 | 0.07983 | 0.1233 | 0.02899 | −0.01119 | −0.007898 | 0.003206 | 0.1164 | 0.02947 | 0.112 | −0.006852 | 0.02477 | 0.01408 | 0.02306 |  |  | 0.01158 | 0.04874 | 0.08241 | 
COc1cc2c(c(OC)c1OC)-c1ccc(OC)c(=O)cc1[C@@H](NC(C)=O)CC2 [Colchicine] | 0.003026 | −0.03356 | −0.0009082 | 0.161 | 0.1688 | −0.03053 | −0.01061 | −0.008548 | 0.1409 | 0.05808 | 0.1128 | −0.005221 | −0.04443 | 0.003669 | −0.01338 |  |  | −0.02812 | −0.004229 | 0.05702 | 
COc1ccc(N(C(=O)CCl)C(C(=O)NCCc2ccccc2)c2cccs2)cc1 (centres unmarked) [DPI4] | 0.0813 | −0.07596 | −0.0206 | −0.04482 | 0.116 | 0.02148 | 0.06864 | 0.00317 | 0.1443 | 0.1443 | 0.03153 | 0.004961 | 0.1295 | 0.03966 | 0.1612 |  |  | 0.2611 | 0.2547 | −0.02179 | 
COc1cccc2c1C(=O)c1c(O)c3c(c(O)c1C2=O)C[C@@](O)(C(C)=O)C[C@@H]3O[C@H]1C[C@H](N)[C@H](O)[C@H](C)O1 [Daunorubicin] | 0.03793 | 0.02846 | 0.03322 | 0.1497 | 0.2122 | −0.03527 | −0.005247 | 0.005526 | 0.1434 | 0.05475 | 0.1226 | −0.01867 | −0.02055 | 0.02539 | 0.02856 |  |  | 0.004145 | −0.02026 | 0.05594 | 
COc1cccc2c1C(=O)c1c(O)c3c(c(O)c1C2=O)C[C@@](O)(C(=O)CO)C[C@@H]3O[C@H]1C[C@H](N)[C@H](O)[C@H](C)O1 [Doxorubicin] | 0.03113 | 0.01555 | 0.04966 | 0.1412 | 0.1971 | 0.004462 | −0.01105 | 0.01382 | 0.1477 | 0.05475 | 0.1339 | −0.007486 | −0.003677 | 0.01775 | 0.03307 |  |  | 0.01689 | 0.01164 | 0.05543 | 
CS[C@H]1SC[C@H]2C(=O)N(C)[C@@H](C(C)C)C(=O)OC[C@@H](NC(=O)c3cnc4ccccc4n3)C(=O)N[C@@H](C)C(=O)N(C)[C@@H]1C(=O)N(C)[C@@H](C(C)C)C(=O)OC[C@@H](NC(=O)c1cnc3ccccc3n1)C(=O)N[C@@H](C)C(=O)N2C [Echinomycin] | 0.3457 | 0.02426 | 0.04925 | 0.2015 | 0.09321 | −0.004325 | 0.002041 | 0.01199 | 0.2351 | 0.1205 | 0.2292 | 0.01082 | −0.01901 | −0.004369 | −0.001724 |  |  | 0.1681 | −0.04322 | 0.005973 | 
CC(C)C[C@@H](C=O)NC(=O)[C@H](CC(C)C)NC(=O)[C@H](CC(C)C)NC(=O)OCc1ccccc1 [MG132, reference compound] (Cbz-Leu-Leu-Leu-aldehyde) | −0.04346 | −0.2701 | 0.04216 | 0.2476 | 0.1849 | −0.01327 | 0.03163 | 0.01789 | 0.2064 | 0.1487 | 0.04274 | 0.02073 | −0.0504 | −0.02291 | 0.1241 |  |  | −0.002326 | −0.01449 | −0.08452 | 
CC(C)C[C@H](NC(=O)[C@H](CC(C)C)NC(=O)[C@H](CC(C)C)NC(=O)OCc1ccccc1)B(O)O [MG262] | −0.0362 | −0.1989 | 0.01756 | 0.2438 | 0.1109 | 0.005064 | 0.02134 | 0.02272 | 0.152 | 0.1437 | 0.06084 | −0.006928 | −0.01342 | 0.006624 | 0.09405 |  |  | 0.05198 | 0.008087 | −0.05498 | 
Nc1ccccc1NC(=O)c1ccc(CNC(=O)OCc2cccnc2)cc1 [MS275] | −0.02606 | −0.03932 | 0.08944 | 0.2266 | 0.2326 | −0.009656 | 0.023 | 0.02321 | 0.1569 | −0.001183 | 0.1269 | −0.003779 | −0.01329 | −0.01824 | 0.08474 |  |  | −0.008452 | −0.001137 | 0.1415 | 
